Assay results: publication PMC10367131 (ACS Synthetic Biology, 2023)

Tests used:
[1] = biological target: T1, VgGR/RXR (Homo sapiens, UniProt P04150+P19793, F602S); assay: VgGR/RXR luciferase reporter co-transfection assay in HEK293 cells; type: cell-based
T1 sequence (P04150 523-777 F602S limits assumed): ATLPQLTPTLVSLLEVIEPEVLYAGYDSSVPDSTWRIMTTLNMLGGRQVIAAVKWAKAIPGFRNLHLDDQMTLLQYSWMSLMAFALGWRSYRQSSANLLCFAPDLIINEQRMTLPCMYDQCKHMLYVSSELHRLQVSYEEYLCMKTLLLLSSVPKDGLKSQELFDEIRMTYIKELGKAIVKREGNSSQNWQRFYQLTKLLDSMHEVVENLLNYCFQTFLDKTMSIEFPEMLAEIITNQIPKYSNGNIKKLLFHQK
T1 sequence (P19793 1-462): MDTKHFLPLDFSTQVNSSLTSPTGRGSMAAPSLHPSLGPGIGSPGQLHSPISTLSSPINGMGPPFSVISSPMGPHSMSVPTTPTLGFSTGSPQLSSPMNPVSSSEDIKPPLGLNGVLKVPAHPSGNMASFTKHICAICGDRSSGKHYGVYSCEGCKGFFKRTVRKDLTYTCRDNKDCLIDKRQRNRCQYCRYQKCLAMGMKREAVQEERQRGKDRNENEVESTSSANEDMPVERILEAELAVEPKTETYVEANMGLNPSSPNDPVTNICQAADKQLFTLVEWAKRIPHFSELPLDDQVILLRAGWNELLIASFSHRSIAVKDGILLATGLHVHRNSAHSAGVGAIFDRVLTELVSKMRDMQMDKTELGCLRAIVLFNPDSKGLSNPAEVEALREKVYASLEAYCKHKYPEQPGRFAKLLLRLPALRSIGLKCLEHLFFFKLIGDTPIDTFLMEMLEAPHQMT

[2] = system: VgEcR/RXR; assay: Original VgEcR/RXR luciferase reporter co-transfection assay in HEK293 cells; type: cell-based, human; conditions: ligand alone at 1 µM or 10 µM, HEK293, 20 h

Which “Response of VgGR/RXR reporter expression to ligand” value ([1]; ligand alone, HEK293, 20 h) does the source give for `CC(C)CC[C@@H](O)[C@](C)(O)[C@H]1CC[C@@]2(O)C3=CC(=O)[C@@H]4C[C@@H](O)[C@@H](O)C[C@]4(C)[C@H]3CC[C@]12C` [PonA, ponasterone A] here?
Its value is “did not respond”.

With `CC#C[C@]1(O)CC[C@H]2[C@@H]3CCC4=CC(=O)CCC4=C3[C@@H](c3ccc(N(C)C)cc3)C[C@@]21C` [RU-486, mifepristone] as the molecule, how does the “Effect of increasing antagonist concentration on DEX-activated output” value [1] read?
The value was “reduction of output levels”.

What about the “Effect on reporter expression in the absence of DEX” value [1] of the same molecule?
The value was “increase in reporter expression”.

How did the “Maximal activation of reporter expression by ligand alone” value [1] turn out when `C[C@@H]1C[C@H]2[C@@H]3CCC4=CC(=O)C=C[C@]4(C)[C@@]3(F)[C@@H](O)C[C@]2(C)[C@@]1(O)C(=O)CO` [DEX, dexamethasone] was run?
The value was “around one order of magnitude”.

What about the “Response of original VgEcR/RXR reporter expression to ligand” value [2] of the same molecule?
The value was “did not respond”.

`C[C@]12C=CC(=O)C=C1CC[C@@H]1[C@@H]2[C@@H](O)C[C@@]2(C)[C@H]1CC[C@]2(O)C(=O)CO` [PRED, prednisolone] was tested. Which “Response of original VgEcR/RXR reporter expression to ligand” value [2] did it give?
The value was “did not respond”.
